Results: patent US11168059B2, “Amino sulfonyl compounds” (CV6 Therapeutics (NI) Limited, priority 2016, dated 2021)

These compounds were tested against T1, recombinant human deoxyuridine nucleotidohydrolase (dUTPase) (Homo sapiens, UniProt P33316) (assay: dUTPase inhibition, fluorescence-based DNA polymerase assay). Conditions: not given.
T1 construct: made in house
T1 sequence (P33316 1-164 isoform P33316-2): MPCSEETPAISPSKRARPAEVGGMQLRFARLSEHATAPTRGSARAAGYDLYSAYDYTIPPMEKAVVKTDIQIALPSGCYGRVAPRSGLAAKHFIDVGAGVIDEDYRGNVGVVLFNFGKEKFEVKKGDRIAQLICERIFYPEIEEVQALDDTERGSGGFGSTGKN
Assay type: biochemical
From the text: Recombinant human deoxyuridine nucleotidohydrolase (dUTPase) is expressed and purified as described in Ladner R D, Carr S A, Huddleston M J, McNulty D E, Caradonna S J. J Biol Chem. 1996 Mar. 29; 271(13):7752-7. All drugs stocks are aliquoted and diluted as appropriate prior to use. The oligonucelotide primer, templates and fluorophore- and quencher-labeled detection probes are synthesized by Integrated DNA Technologies (Coralville, Iowa), subjected to polyacrylamide gel electrophoresis purification and reconstituted in Omnipur sterile nuclease-free water (EMD Chemicals USA, Gibbstown N.J.) at a stock concentration of 100 μmol/L. The two non-emissive (dark) quenching molecules incorporated into the detection probes include the Iowa black fluorescein quencher (IBFQ; absorption max 531 nm) and ZEN (non-abbreviation; absorption max 532 nm). The fluorescent label utilized is 6-FAM (5′-carboxyfluorescein; excitation max.=494 nm, emission max.=520 nm). Probes are further diluted to a working stock of 10 μmol/L and aliquoted to avoid repeated freeze/thaw cycles. AmpliTaq Gold DNA Polymerase, GeneAmp 10×PCR Buffer 2, MgCl2 and MicroAmp Optical 96-well Reaction Plates are purchased from Applied Biosystems (Carlsbad, Calif.). dNTPs are purchased individually at stock concentrations of 100 mmol/L from New England Biolabs at HPLC-certified >99% purity (Ipswich, Mass.).
Reaction mixtures contained primer, probe and template at an equimolar final concentration of 0.4 μmol/L. Magnesium chloride (MgCl2) is included at a final concentration of 2 mmol/L. Non-limiting dNTPs are included in the reaction mix in excess at a final concentration of 100 μmol/L (dUTP/dTTP is excluded). AmpliTaq Gold DNA polymerase is added at 0.875 U/reaction, 2.5 μl of 10×PCR buffer 2 added and nuclease-free ddH2O added to a final reaction volume of 25 μl. For dUTP inhibition analysis, the volume of ddH2O is further modified to accommodate an additional 1 μl of dUTPase (10 ng/μl) and 1 μl of inhibitor or DMSO control. Thermal profiling and fluorescence detection is performed using a customized thermal program on board a Roche Lightcycler LC480 Instrument II. For analysis of dNTPs, the thermal profile consisted of an 8 min 37° C. step followed by a 10 min 95° C. step to ‘hot-start’ the Taq polymerase and a primer extension time of up to 30 min at 60° C. Raw fluorescence spectra for 6-FAM is measured at specified time intervals to follow assay progression on board a Roche LightCycler 480 Software Version 1.5 and exported and analyzed in Microsoft Excel (Microsoft, Redmond Wash.) and Prism (GraphPad Software, La Jolla Calif.). Fluorescence values for blank reactions (limiting dNTP omitted) are subtracted to give normalized fluorescence units (NFU) to account for background fluorescence.
Test compounds are screened in a fluorescence-based assay. The assay employs a DNA polymerase-based approach utilizing an oligonucleotide template with 3 distinct regions: a 3′ primer binding region, a mid-template dUTP/thymidine triphosphate (TTP) detection region and a 5′ 6-[…] (FAM)-labeled probe binding region that incorporates a black hole quenching moiety. During the reaction, the probe and primer hybridize to the oligonucleotide template to form the template:primer:probe complex. When Taq polymerase binds to the primer in the TPP complex and dUTP is present, successful extension of the nascent strand occurs and the inherent 5′ to 3′ exonuclease activity of Taq polymerase cleaves and displaces the 6-FAM-labeled probe in a 5′ to 3′ direction, releasing the 6-FAM fluorophore from its proximity to the […]. This displacement effectively disrupts the Forster resonance energy transfer (FRET) and the resulting fluorescence detected upon excitation is directly proportional to the amount of the dUTP available in the assay for incorporation. […]

| Structure (SMILES) | IC50 [µM] |
| --- | --- |
| CC(C)(NS(=O)(=O)c1cccc(OC2CCCC2)c1)c1ccc(CN2CC(=O)NC2=O)cc1 [Example 41, 3-(cyclopentyloxy)-N-(2-(4-((2,4-dioxoimidazolidin-1-yl)methyl)phenyl)propan-2-yl)benzenesulfonamide] | 0.3 |
| O=C1CN(Cc2ccc(CNS(=O)(=O)c3cccc(OC4CCCC4)c3)cc2)C(=O)N1 [Example 40, 3-(cyclopentyloxy)-N-(4-((2,4-dioxoimidazolidin-1-yl)methyl)benzyl)benzenesulfonamide] | 1.4 |

Same assay, conditions: mean over three concentrations, typically 100, 50 and 25 μmol/L, relative to in-run positive control

| Structure (SMILES) | % relative inhibition vs. positive control [%] |
| --- | --- |
| CC(C)COc1cc(S(=O)(=O)NCCCCCCN2CC(=O)NC2=O)ccc1F [Compound 45b, N-(6-(2,4-dioxoimidazolidin-1-yl)hexyl)-4-fluoro-3-isobutoxybenzenesulfonamide] | 151 |
| CC(C)COc1cc(S(=O)(=O)NCCCCCCN2CCC(=O)NC2=O)ccc1F [Compound 50b, N-(6-(2,4-dioxotetrahydropyrimidin-1(2H)-yl)hexyl)-4-fluoro-3-isobutoxybenzenesulfonamide] | 141 |
| O=C1CCN(C/C=C/CCCNS(=O)(=O)c2ccc(F)c(OCC3CC3)c2)C(=O)N1 [Compound 49a, (E)-3-(cyclopropylmethoxy)-N-(6-(2,4-dioxotetrahydropyrimidin-1(2H)-yl)hex-4-en-1-yl)-4-fluorobenzenesulfonamide] | 151 |
| CC(C)COc1cc(S(=O)(=O)NCCC/C=C/CN2CC(=O)NC2=O)ccc1F [Compound 45a, (E)-N-(6-(2,4-dioxoimidazolidin-1-yl)hex-4-en-1-yl)-4-fluoro-3-isobutoxybenzenesulfonamide] | 178 |
| O=C1CCN(CCCOCCNS(=O)(=O)c2cccc(OCC3CC3)c2)C(=O)N1 [Example 48, 3-(cyclopropylmethoxy)-N-(2-(3-(2,4-dioxotetrahydropyrimidin-1(2H)-yl)propoxy)ethyl)benzenesulfonamide] | 82 |
| O=C1CN(C/C=C/CCCNS(=O)(=O)c2cccc(OCC3CC3)c2)C(=O)N1 [Compound 44a, (E)-3-(cyclopropylmethoxy)-N-(6-(2,4-dioxoimidazolidin-1-yl)hex-4-en-1-yl)benzenesulfonamide] | 159 |
| CC(C)(NS(=O)(=O)c1cccc(OC2CCCC2)c1)c1ccc(CN2CC(=O)NC2=O)cc1 [Example 41, 3-(cyclopentyloxy)-N-(2-(4-((2,4-dioxoimidazolidin-1-yl)methyl)phenyl)propan-2-yl)benzenesulfonamide] | 249 |
| O=C1CN(Cc2ccc(CNS(=O)(=O)c3cccc(OC4CCCC4)c3)cc2)C(=O)N1 [Example 40, 3-(cyclopentyloxy)-N-(4-((2,4-dioxoimidazolidin-1-yl)methyl)benzyl)benzenesulfonamide] | 53 |
| O=C1CCN(CCOCCCNS(=O)(=O)c2cccc(OCC3CC3)c2)C(=O)N1 [Example 47, 3-(cyclopropylmethoxy)-N-(3-(2-(2,4-dioxotetrahydropyrimidin-1(2H)-yl)ethoxy)propyl) benzenesulfonamide] | 8 |
| O=C1CN(CCCCCCNS(=O)(=O)c2ccc(F)c(OCC3CC3)c2)C(=O)N1 [Compound 44b, 3-(cyclopropylmethoxy)-N-(6-(2,4-dioxoimidazolidin-1-yl)hexyl)-4-fluorobenzenesulfonamide] | 168 |
| O=C1CCN(C/C=C/CCCNS(=O)(=O)c2ccc(F)c(OCC3CC3)c2)C(=O)N1 [Compound 49b, (E)-3-(cyclopropylmethoxy)-N-(6-(2,4-dioxotetrahydropyrimidin-1(2H)-yl)hex-4-en-1-yl)-4-fluorobenzenesulfonamide] | 144 |
| CC(C)COc1cc(S(=O)(=O)NCCC/C=C/CN2CCC(=O)NC2=O)ccc1F [Compound 50a, (E)-N-(6-(2,4-dioxotetrahydropyrimidin-1(2H)-yl)hex-4-en-1-yl)-4-fluoro-3-isobutoxybenzenesulfonamide] | 156 |
| O=C1CN(CCOCCCNS(=O)(=O)c2cccc(OCC3CC3)c2)C(=O)N1 [Example 42, 3-(cyclopropylmethoxy)-N-(3-(2-(2,4-dioxoimidazolidin-1-yl)ethoxy)propyl)benzenesulfonamide] | 136 |

These compounds were tested on colorectal (HCT 116 and SW620) cell line models (assay: MTS growth inhibition assay). Conditions: 5-FU between 0 and 100 μmol/L; both colorectal cancer cell lines.
Assay type: cell-based
Protocol: The Cell Titer AQueous MTS assay (Promega) is carried out according to the manufacturers guidelines. […] The combination effect is determined by the combination index (CI) method utilizing Calcusyn software (Biosoft, Ferguson, Mo.). […] CI values <1, synergism; 1-1.2, additive and >1.2, antagonism.
Test compounds are evaluated for their antitumor activity in colorectal cancer cells using the MTS growth inhibition assay. HCT116 and SW620 cells are exposed to increasing concentrations of each agent for 72 hours and growth inhibition is directly compared to vehicle-treated controls. The NSCLC cell lines A549 and H1299 are exposed to increasing concentrations of each agent for 72 hours and growth inhibition is directly compared to vehicle-treated controls.
Simultaneous treatment with increasing concentrations of 5-FU and a test compound at fixed concentrations of 25 μmol/L is determined.

| Structure (SMILES) | growth inhibition |
| --- | --- |
| O=c1[nH]cc(F)c(=O)[nH]1 [Example 5-FU, 5-fluorouracil] | dose-dependent increases in growth inhibition |

The compounds below were run on colorectal (HCT116), breast (MCF-7) and non-small cell lung (H1299, A549, H358 and H460) cell line models (assay: Colony forming assay). Conditions: FUdR between 0.5 and 2.5 μmol/L; all cell lines evaluated.
Assay type: cell-based
Protocol: Colony forming assay showing the ability of colon (SW620, HCT116), non-small cell lung (A549, H460, H1299 and H358) and breast (MCF7) cancer cells to survive and proliferate following transient 24 hour exposure to test compounds, FUdR and combinations are determined. Specifically, cells are seeded at densities between 50 and 100 cells/well in 24-well plates. Twenty-four hours later, cells are treated with increasing concentrations of a rtest compound, a fixed dose of FUdR and combinations of these. After 24 hours, drug is removed, cells are rinsed and allowed to outgrow for 10-14 days. At the conclusion of the outgrowth, cells are fixed in 60% ice cold methanol and stained with 0.1% crystal violet, scanned and counted. Data is presented as percentage of untreated controls (mean±SD). Fraction affected and combination indexes are calculated according to the method of Chou and Talalay where <1 is indicative of a synergistic drug interaction.
Colony forming assays are performed to evaluate the effectiveness of test compounds alone and in combination with the fluoropyrimidine thymidylate synthase (TS) inhibitor fluorodeoxyuridine (FUdR) at reducing cancer cell viability in colorectal (HCT116), breast (MCF-7) and non-small cell lung (H1299, A549, H358 and H460) cell line models. […]

| Structure (SMILES) | colonies formed |
| --- | --- |
| O=c1[nH]c(=O)n([C@H]2C[C@H](O)[C@@H](CO)O2)cc1F [FUdR, fluorodeoxyuridine] | dose-dependent decreases in colonies formed |
